Test results reported in patent US8680097B2, “Benzothiophene alkanol piperazine derivatives and their use as antidepressant” (CSPC Zhongqi Pharmaceutical Technology (Shijiazhuang) Co. …, priority 2008, dated 2014).
Where two headings read alike, the source gives them in different places.

Key:
[1] = test system: uptake of DA by brain synaptosomes; assay: [3H]DA reuptake by rat brain synaptosomes; format: biochemical; settings: for inhibition effect on the uptake of DA: rat corpus striatum synaptosomes, control drugs and tested substances all 0.1 mmol/L (method and b297 say 10 μmol/L), inhibition rate; for inhibition activity on the reuptake of DA (in words): at the concentration of 10 μmol/L
[2] = test system: uptake of 5-HT by brain synaptosomes; assay: [3H]5-HT reuptake by rat brain synaptosomes; format: biochemical; settings: at the concentration of 10 μmol/L
[3] = test system: uptake of NA by brain synaptosomes; assay: [3H]NA reuptake by rat brain synaptosomes; format: biochemical; settings: at the concentration of 10 μmol/L
[4] = Forced Swimming Test in Learned Helplessness Experiment; format: in vivo
Description: 2. Results of in vivo antidepression of compound VII-10

[5] = test system: histidine auxotrophic mutant strains of Salmonella TA97, TA98, TA100 and TA102; format: cell-based
Description: 4. Bacterial reverse mutation test for VII-10.
Bacterium: histidine auxotrophic mutant strains of Salmonella TA97, TA98, TA100 and TA102
Experimental method: the method reported in the literature: Maron D M et al: (1983) Mutay Res. 113, 173-216.
Results: The experiment included two parts: −S9 and +S9. […] The other dosages had no bacteriostatic effect for all the strains, with a well growing background. […] Ames test result was negative.

mice = assay: Acute toxicity, LD50 single-fed; format: in vivo; settings: statistics of Bliss
Protocol: Initial screening was performed by the method reported in “Modern Pharmacological Experiments Mothods” edited by Zhang Juntian.

SMILES | inhibition effect on the uptake of DA [1] | inhibition activity on the reuptake of 5-HT (in words) [2] | inhibition activity on the reuptake of NA (in words) [3] | inhibition activity on the reuptake of DA (in words) [1] | further results
CC(C(O)c1csc2ccccc12)N1CCN(Cc2ccccc2)CC1 (single isomer, unassigned) [VII-5, N^1-benzyl-N^4-[1-methyl-2-hydroxy-2-(benzo[b]thiophene-3-yl)]ethylpiperazine (erythro isomer)] | 11.4 ± 11.5 |  |  |  | 
CC(C(O)c1csc2ccccc12)N1CCN(Cc2ccccc2)CC1 (single isomer, unassigned) [VII-4, N^1-benzyl-N^4-[1-methyl-2-hydroxy-2-(benzo[b]thiophene-3-yl)]ethylpiperazine (threo isomer)] | 14.5 ± 10.0 |  |  |  | 
Cl.OC(CCN1CCN(C(c2ccccc2)c2ccccc2)CC1)c1csc2ccccc12 (stereo not drawn) [VII-14, N^1-benzhydryl-N^4-[3-hydroxy-3-(benzo[b]thiophene-3-yl)]propylpiperazine hydrochloride] | 87.3 ± 4.3 | stronger inhibition activity | stronger inhibition activity | stronger inhibition activity | 
COc1ccc(C(CN(C)C)C2(O)CCCCC2)cc1 (stereo not drawn) [Venlafaxine, reference compound] | 48.6 ± 4.1 ^ |  |  |  | immobility time ([4]; dosage 4.56 mg/kg): 57.1 ± 37.8 s; immobility time ([4]; dosage 9.12 mg/kg): 77.4 ± 47.2 s; immobility time ([4]; dosage 18.24 mg/kg): 80.8 ± 46.8 s
Cl.OC(CCN1CCN(CC=Cc2ccccc2)CC1)c1csc2ccccc12 (stereo not drawn) [VII-11, N^1-cinnamyl-N^4-[3-hydroxy-3-(benzo[b]thiophene-3-yl)]propylpiperazine hydrochloride] | 97.9 ± 1.1 | stronger inhibition activity | stronger inhibition activity | stronger inhibition activity | 
Cl.OC(CCN1CCN(Cc2ccccc2)CC1)c1csc2ccccc12 (stereo not drawn) [VII-10, N^1-benzyl-N^4-[3-hydroxy-3-(benzo[b]thiophene-3-yl)]propylpiperazine hydrochloride] | 78.0 ± 8.0 | stronger inhibition activity | stronger inhibition activity | stronger inhibition activity | Ames test result ([5]; TA97, TA98, TA100, TA102, −S9 and +S9): negative; dose showing bacteriostatic effect ([5]; TA97 in +S9 test system): 5000 μg per culture dish; dose showing bacteriostatic effect ([5]; TA98 in −S9 test system): 5000 μg per culture dish; number of reverse mutation colonies ([5]; all dosages tested, both −S9 and +S9 test systems): no significant increase; effect on immobility time in swimming (in words) [4]: significantly reduce the immobility time; immobility time ([4]; dosage 6.35 mg/kg): 90.7 ± 46.3 s; immobility time ([4]; dosage 12.7 mg/kg): 87.5 ± 35.7 s; immobility time ([4]; dosage 25.4 mg/kg, hydrochloride): 84 ± 48.9 s; LD50 (mice): 1100 mg/kg
CC(c1ccccc1)N1CCN(CCC(O)c2csc3ccccc23)CC1.Cl (stereo not drawn) [VII-12, N^1-α-phenethyl-N^4-[3-hydroxy-3-(benzo[b]thiophene-3-yl)]propylpiperazine hydrochloride] | 98.0 ± 1.5 | stronger inhibition activity | stronger inhibition activity | stronger inhibition activity | 
Clc1ccc([C@]23CNC[C@H]2C3)cc1Cl [DOV 21947, reference compound] | 104.1 ± 4.2 ^ |  |  |  | 
Cl.OC(CCN1CCN(CCOC(c2ccc(F)cc2)c2ccc(F)cc2)CC1)c1csc2ccccc12 (stereo not drawn) [VII-15] | 102.2 ± 1.3 ^ | stronger inhibition activity | stronger inhibition activity | stronger inhibition activity | 
